Test results reported in article PMC9995496, “A screen for MeCP2-TBL1 interaction inhibitors using a luminescence-based assay” (Scientific Reports, 2023).
Where a name gives a salt, the structure may show the parent alone. Read-outs that look alike come from different tables or passages of the source. Numbered stars: 1 amine (or outer) side, 2 acyl side, 3 side chain; on linkers, the order of the positions; unused ones are H or OH. Bridge positions count the residues as written; N and C are the ends. Square brackets hold non-standard residues; d marks the D form. Peptide text beside a SMILES is read from it. * marks the point of attachment. hTyr(3S-OH,4S-OH,3'-OSO3H) = N[C@H](C(=O)O)[C@H](O)[C@@H](O)c1ccc(O)c(OS(=O)(=O)O)c1; Orn(4R-OH,5R-OH) = O=C([C@H](C[C@@H](O)[C@@H](O)N[*:3])N[*:1])[*:2]; Pro(3S-OH,4S-Me) = C[C@H]1CN[C@H](C(=O)O)[C@H]1O; X1 = CCCCCOc1ccc(-c2cc(-c3ccc(C(=O)*)cc3)no2)cc1; Gln(3R-OH) = NC(=O)C[C@@H](O)[C@H](N)C(=O)O; Hyp = O=C(O)[C@@H]1C[C@@H](O)CN1

System: PRKACA-PRKAR2A interaction (SmBiT-PRKACA / LgBiT-PRKAR2A), protein kinase A
Parameters: NanoLuc complementation counter-screen in cell extract, PRKACA with PRKAR2A, loss of luminescence, detects NanoLuc interference
Conditions: counter-screen for NanoLuc interference, 0.5 h, 20 µM, inhibitor

Compound | Inh (PKA) [%] | Inh (PKA) (Inh (PKA)) [%]
COc1cc(Oc2ccnc3cc(OC)c(OC)cc23)ccc1NC(=O)NC(C)c1nccs1 (centres unmarked) [UM0141572:01, Ki20227] | 11.8 | –
COc1ccc(S(=O)(=O)Nc2ccccc2CN(C)C/C=C/c2ccc(Cl)cc2)cc1 [UM0141573:01, KN-92 phosphate] | 16.02 | –
COc1ccc(S(=O)(=O)N(CCO)c2ccccc2CN(C)C/C=C/c2ccc(Cl)cc2)cc1 [UM0141574:01, KN-93] | – | 44.92
O=C(Cc1ccc(-c2ccc(OCCN3CCOCC3)cc2)cn1)NCc1ccccc1 [UM0141575:01, KX2-391 dihydrochloride] | – | 3.66
CN[C@@H](C)C(=O)N[C@H](C(=O)N1CCC[C@H]1c1nc(C(=O)c2ccc(F)cc2)cs1)C1CCCCC1 [UM0141576:01, LCL161] | 0.904 | –
c1ccc2c(-c3cnn4cc(-c5ccc(N6CCNCC6)cc5)cnc34)ccnc2c1 [UM0141577:01, LDN193189 Hydrochloride] | – | 9.112
COC(=O)N[C@H](C(=O)N1CC2(CC2)C[C@H]1c1nc(-c2ccc3c(c2)C(F)(F)c2cc(-c4ccc5[nH]c([C@@H]6[C@H]7CC[C@H](C7)N6C(=O)[C@@H](NC(=O)OC)C(C)C)nc5c4)ccc2-3)c[nH]1)C(C)C [UM0141578:01, Ledipasvir] | 1.236 | –
CC1(C)O[C@H]2CC(=O)OC[C@]23[C@H]2CC[C@@]4(C)[C@H](c5ccoc5)OC(=O)[C@H]5O[C@]54[C@]2(C)C(=O)C[C@@H]13 [UM0141579:01, Limonin] | 0.3774 | –
COc1cc(C(=O)N2CCC(N3CCN(C)CC3)CC2)ccc1Nc1ncc2c(n1)N(C)c1ccccc1C(=O)N2C [UM0141580:01, LRRK2-IN-1] | 12.15 | –
O=C1NC(=O)C(c2cnc3ccccn23)=C1c1cn2c3c(cc(F)cc13)CN(C(=O)N1CCCCC1)CC2 [UM0141581:01, LY2090314] | 40.49 | –
Cc1ccc(C(=O)Nc2ccc(Oc3cc4cnn(C)c4cc3-c3cn[nH]c3)c(F)c2)c(=O)n1-c1ccc(F)cc1 [UM0141582:01, LY2801653] | 33.02 | –
C[C@@H](Oc1ccc2[nH]nc(/C=C/c3cnn(CCO)c3)c2c1)c1c(Cl)cncc1Cl [UM0141583:01, LY2874455] | 40.12 | –
O=C1CCC[C@@H]2[C@H]3CCCN4CCC[C@@H](CN12)[C@@H]34 [UM0141584:01, Matrine] | 1.794 | –
CCCCCOc1ccc(-c2cc(-c3ccc(C(=O)N[C@H]4C[C@@H](O)[C@@H](O)NC(=O)[C@@H]5[C@@H](O)[C@@H](C)CN5C(=O)[C@H]([C@H](O)CC(N)=O)NC(=O)[C@H]([C@H](O)[C@@H](O)c5ccc(O)c(OS(=O)(=O)O)c5)NC(=O)[C@@H]5C[C@@H](O)CN5C(=O)[C@H]([C@@H](C)O)NC4=O)cc3)no2)cc1 [UM0141585:01, Micafungin sodium] (X1-[Orn(4R-OH,5R-OH)]T[Hyp][hTyr(3S-OH,4S-OH,3'-OSO3H)][Gln(3R-OH)][Pro(3S-OH,4S-Me)]; lactam 1-C) | 7.755 | –
NC(=O)c1cccc2cn(-c3ccc([C@@H]4CCCNC4)cc3)nc12 [UM0141586:01, MK-4827] | 5.692 | –
C=C[C@@H]1C[C@]1(NC(=O)[C@@H]1C[C@@H]2CN1C(=O)[C@H](C(C)(C)C)NC(=O)O[C@@H]1C[C@H]1CCCCCc1nc3ccc(OC)cc3nc1O2)C(=O)NS(=O)(=O)C1CC1 [UM0141587:01, MK-5172] | 6.735 | –
COc1c(Cl)cc2c([nH]c3cnccc32)c1NC(=O)c1cccnc1C [UM0141589:01, MLN120B] | 5.314 | –
Cc1c(O)cccc1C(=O)N[C@@H](CSc1ccccc1)[C@H](O)CN1C[C@H]2CCCC[C@H]2C[C@H]1C(=O)NC(C)(C)C [UM0141590:01, Nelfinavir Mesylate] | 3.843 | –
CNC(=O)c1c(-c2ccc(F)cc2)oc2cc(N(CCO)S(C)(=O)=O)c(C3CC3)cc12 [UM0141591:01, Nesbuvir] | 3.406 | –
C[C@H](Cc1ccc(O)c(O)c1)[C@@H](C)Cc1ccc(O)c(O)c1 [UM0141592:01, Nordihydroguaiaretic acid] | 80.65 | –
CCOC(=O)C1=C[C@@H](OC(CC)CC)[C@H](NC(C)=O)[C@@H](N)C1 [UM0141595:01, Oseltamivir] | – | 0.436
CC(C)OC(=O)[C@H](C)N[P@](=O)(OC[C@H]1O[C@@H](n2ccc(=O)[nH]c2=O)[C@](C)(F)[C@@H]1O)Oc1ccccc1 [UM0141610:01, PSI-7977] | 2.04 | –

More lines, now with the values ahead:

Inh (PKA) [%] | Inh (PKA) (Inh (PKA)) [%] | Compound
1.334 | – | CCC(CC)O[C@@H]1C=C(C(=O)O)C[C@H](N)[C@H]1NC(C)=O [UM0141596:01, Oseltamivir acid]
3.513 | – | COC(=O)[C@H](Cc1cccc(C(=N)N)c1)[C@@H](C)NC(=O)c1ccc(-c2cc[n+]([O-])cc2)cc1 [UM0141597:01, Otamixaban]
– | 0.5825 | Nc1nc2[nH]cc(CCc3ccc(C(=O)N[C@@H](CCC(=O)O)C(=O)O)cc3)c2c(=O)[nH]1 [UM0141598:01, Pemetrexed disodium hemipenta hydrate]
– | 0.874 | CCCC(CCC)C(=O)O [UM0141598:02, Valproic acid sodium salt (Sodium valproate)]
1.56 | – | O=C(O)CCCc1ccccc1 [UM0141598:03, Sodium Phenylbutyrate]
1.284 | – | OC[C@H]1O[C@@H](n2cnc3c2N=CNC[C@H]3O)C[C@@H]1O [UM0141599:01, Pentostatin]
– | 2.459 | CCC(CC)[C@H](NC(C)=O)[C@@H]1[C@H](O)[C@@H](C(=O)O)C[C@H]1NC(=N)N [UM0141600:01, Peramivir]
66.65 | – | Cc1nc(Nc2n[nH]c3c2CN(C(=O)N[C@H](CN(C)C)c2ccccc2)C3(C)C)c2sccc2n1 [UM0141601:01, PF-3758309]
48.77 | – | Nc1nccc(-c2c(-c3ccc(F)cc3)ncn2C2CCCCC2)n1 [UM0141603:01, PF-670462]
13.11 | – | O=C(CCN1CCN(C(=O)OCc2cc(Cl)cc(Cl)c2)CC1)c1ccc2[nH]c(=O)oc2c1 [UM0141604:01, PF-8380]
1.427 | – | O=C1NCCc2[nH]c(-c3ccncc3)cc21 [UM0141605:01, PHA-767491]
– | 17.85 | Oc1cccc(-c2nc(N3CCOCC3)c3oc4ncccc4c3n2)c1 [UM0141606:01, PI-103 Hydrochloride]
14.93 | – | CNC(=O)c1ccccc1Nc1cc(Nc2ccc(N3CCOCC3)cc2OC)ncc1C(F)(F)F [UM0141607:01, PND-1186]
31.48 | – | CC1=CC(=O)C(C(C)C)=C/C1=N/OC(=O)c1ccccc1C [UM0141608:01, Poloxin]
22.19 | – | NC(=O)c1cnc(N[C@@H]2CCCC[C@@H]2N)nc1Nc1cccc(-n2nccn2)c1 [UM0141609:01, PRT062607 Hydrochloride]
– | 6.023 | CNC(=O)c1cc(Oc2ccc(NC(=O)Nc3ccc(Cl)c(C(F)(F)F)c3)c(F)c2)ccn1 [UM0141611:01, Regorafenib monohydrate]
